Test results: PMC5884943, “Discovery of Novel Inhibitors of Indoleamine 2,3-Dioxygenase 1 Through Structure-Based Virtual Screening” (Frontiers in Pharmacology, 2018)

Molecular target: T1, human IDO1 protein (Homo sapiens, UniProt P14902)
T1 construct: purchased ChemPartner Lot; No. 20160706
Experiment: Enzymatic IDO1 assay (Absorbance 321 assay)
Type: biochemical
Conditions: for Avg_Inh (%) @ 50uM: average inhibition, Table S2; for Background (%): background signal of the compound in the absorbance assay
Method: The standard assay mixture contained modified potassium phosphate buffer at pH 6.5, 100 μM L-tryptophan (Sigma, Cat. […] No. […]). […] Then the assay plate was read at OD321 kinetically in Spectramax. […] Fit the data in […]5.0 software to obtain IC50-values using Equation (2): (2) Y=Bottom+Top-Bottom/1+10^(logIC50-X)×HillSlope where Y stands for inhibition percentage and X stands for compound concentration. All determinations were carried out in duplicate.

T1 sequence (P14902 whole entry): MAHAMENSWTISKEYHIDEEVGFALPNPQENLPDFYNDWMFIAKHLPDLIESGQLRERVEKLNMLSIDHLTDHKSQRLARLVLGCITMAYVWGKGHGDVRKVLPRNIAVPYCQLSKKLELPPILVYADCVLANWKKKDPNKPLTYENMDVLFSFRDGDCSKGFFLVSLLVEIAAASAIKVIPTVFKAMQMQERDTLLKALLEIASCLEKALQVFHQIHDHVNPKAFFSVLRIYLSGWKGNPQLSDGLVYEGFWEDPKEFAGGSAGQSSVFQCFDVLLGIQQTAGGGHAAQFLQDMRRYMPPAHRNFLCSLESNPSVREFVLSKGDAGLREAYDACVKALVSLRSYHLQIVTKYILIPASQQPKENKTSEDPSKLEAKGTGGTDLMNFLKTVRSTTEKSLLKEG

| SMILES | Avg_Inh (%) @ 50uM [%] | Background (%) |
| --- | --- | --- |
| O=C(Nc1ccccc1OCC1CCCO1)NC1CCCCC1 (stereo not shown) [DCI-050] | 0.29 | 31.57 |
| CC(O)Cn1c(=O)c(=O)[nH]c2ccccc21 (stereo not shown) [DCI-051] | 6.69 | 57.46 |
| Oc1cccc(C(O)CNCc2c(Cl)cccc2Cl)c1 (stereo not shown) [DCI-052] | 3.32 | 31.34 |
| CC(=O)c1[nH]c2ccccc2c1C(C)=O [DCI-053] | 3.68 | 43.33 |
| O=C1c2ccccc2C(=O)N1CNCc1cc(=O)[nH]c(=O)[nH]1 [DCI-054] | 4.51 | 48.55 |
| COc1ccc2oc(C(O)c3c(C)oc4ccc(OC)cc34)cc2c1 (stereo not shown) [DCI-056] | 55.55 | 43.42 |
| Cc1oc2ccc(O)cc2c1C(=O)c1ccc(Br)cc1 [DCI-057] | 67.78 | 57.09 |
| O=C1c2ccccc2NC(c2cccc([N+](=O)[O-])c2)N1O (stereo not shown) [DCI-058] | 4.69 | 37.75 |
| COc1ccc(C(=O)c2c[nH]cc2-c2ccccc2)cc1 [DCI-059] | 17.41 | 49.85 |
| Cc1cc(C)c2c(=O)cc(C(=O)Nc3cc(-c4ccc(F)cc4)no3)oc2c1 [DCI-060] | 79.74 | 59.25 |
| O=C(CSc1ncnc2sc3c(c12)CCC3)Nc1ccccc1 [DCI-061] | 63.45 | 54.35 |
| c1ccc2c3c(c(CN4CCCCC4)cc2c1)COC3 [DCI-062] | 8.78 | 33.45 |
| Cc1nn(C)cc1CN(C)C(=O)c1cc2ccccc2oc1=O [DCI-063] | 2.41 | 54.16 |
| O=C1NN(c2ncnc3sc4c(c23)CCCC4)C(=O)c2cccc3cccc1c23 [DCI-064] | 6.57 | 36.33 |
| Cc1nc2ccccc2cc1C(=O)N/N=C/c1cccc(Cl)c1 [DCI-065] | 26.49 | 68.09 |
| Cn1c(=O)c([N+](=O)[O-])c(Nc2ccc(Cl)cc2)c2ccccc21 [DCI-066] | 24.55 | 53.30 |
| Cc1onc(-c2ccccc2Cl)c1C(=O)Nc1cccc([N+](=O)[O-])c1 [DCI-067] | 28.06 | 37.16 |
| CCn1c(SCC(=O)Nc2ccccc2[N+](=O)[O-])nnc1-c1ccc(O)cc1 [DCI-068] | 5.69 | 35.54 |
| Cc1ccc(C2C(C#N)=C(N)Oc3ccc4ccc(O)cc4c32)cc1 (stereo not shown) [DCI-069] | 79.20 | 42.53 |
| COc1cc(C)c(Cl)cc1S(=O)(=O)Nc1cccc(C)c1C [DCI-070] | 46.52 | 35.28 |
| CC(C)(C)NC(=O)Cc1coc2ccc3ccccc3c12 [DCI-071] | 22.41 | 39.05 |
| O=[N+]([O-])c1ccccc1Sc1c(O)ccc2ccccc12 [DCI-072] | 74.65 | 49.90 |
| O=c1/c(=C/c2c(O)ccc3ccccc23)sc2n1CCCN=2 [DCI-073] | 64.05 | 54.63 |
| CCc1ccc(OCC(=O)Nc2ccccc2C(N)=O)c(Br)c1 [DCI-074] | 21.71 | 35.63 |
| O=C(COc1ccc2ccccc2c1)c1ccc(Br)cc1 [DCI-075] | 79.98 | 55.42 |

| SMILES | Avg_Inh (%) @ 50uM [%] | Background (%) |
| --- | --- | --- |
| Cc1ccccc1C(=O)Oc1ccc2ccc(O)cc2c1 [DCI-076] | 43.35 | 40.50 |
| N#CCn1nc(-c2ccc(Cl)cc2)c2c1-c1ccccc1C2 [DCI-077] | 51.64 | 57.47 |
| Cc1cc(C)c2c(N)c(C(=O)Nc3ccc(S(N)(=O)=O)cc3)sc2n1 [DCI-078] | -8.99 | 62.57 |
| O=C(O)c1ccc(Cn2nnc3cc4ccccc4cc32)cc1 [DCI-080] | -3.23 | 48.38 |
| O=c1[nH]c(CN2CCOCC2)nc2ccccc12 [DCI-081] | -6.95 | 38.30 |
| CCC(C(=O)Nc1cccc(C(C)O)c1)c1ccccc1 (stereo not shown) [DCI-082] | -2.26 | 35.32 |
| Cc1ccc([N+](=O)[O-])cc1NC(=O)COc1ccc2ccccc2c1Br [DCI-083] | 40.17 | 40.73 |
| COc1ccc2ccccc2c1/C=N/NC(N)=S [DCI-084] | 35.60 | 64.61 |
| CC(=O)Nc1ccc(NC(=O)COc2ccc(Br)cc2C)cc1 [DCI-085] | -4.72 | 37.26 |
| O=C(COc1ccc2ccccc2c1)Nc1cccc(Cl)c1 [DCI-086] | 77.96 | 50.53 |
| Cc1cc(C)c(S(=O)(=O)N2CCC(C(N)=O)CC2)cc1C [DCI-087] | -2.50 | 34.87 |
| COc1cc(C(=O)Nc2ccc(S(N)(=O)=O)cc2)cc(OC)c1OC [DCI-088] | -0.32 | 43.06 |
| COc1ccc2ccccc2c1CNC(C)c1ccccc1 (stereo not shown) [DCI-091] | -6.47 | 41.00 |
| COc1ccc2ccccc2c1CNc1ncn[nH]1 [DCI-092] | 1.56 | 40.57 |
| O=C(c1ccc(OCCc2ccccc2)cc1)N1CCCC1 [DCI-093] | 2.13 | 35.52 |
| Cc1cc(=O)oc2cc(OCC(O)Cn3c(C)nc4ccccc43)ccc12 (stereo not shown) [DCI-094] | -10.06 | 75.33 |
| O=C(Cc1coc2ccc3ccccc3c12)N1CCCC1 [DCI-095] | -1.55 | 43.56 |
| Cc1ccc(C)c(NS(=O)(=O)c2ccc3ccccc3c2)c1 [DCI-096] | 58.68 | 49.37 |
| COc1ccc2nc(C(C)O)[nH]c2c1 (stereo not shown) [DCI-097] | -2.09 | 37.58 |
| COc1ccc(C2C(C#N)=C(N)Oc3n[nH]c(-c4ccc(Cl)cc4)c32)cc1O (stereo not shown) [DCI-098] | 4.10 | 35.87 |
| Cc1cc2ccccc2n2c(SCC(=O)Nc3ccc(S(N)(=O)=O)cc3)nnc12 [DCI-099] | 27.63 | 49.90 |
| O=S(=O)(c1ccc(N=Cc2c(O)ccc3ccccc23)cc1)N1CCCCC1 [DCI-100] | 94.68 | 57.16 |
| c1ccc(CNCC2OCCc3ccccc32)cc1 (stereo not shown) [DCI-101] | -0.96 | 35.16 |
| CCn1c(SCc2nc3ccccc3[nH]2)nc2cc(C(=O)OC)ccc2c1=O [DCI-103] | 43.77 | 52.04 |
| O=C(NCCc1cccc(Cl)c1)c1cccc2ccccc12 [DCI-104] | 25.72 | 41.51 |
